Data reported in US10292991B2, “Small molecule therapeutic compounds that reduce the incidence of intracerebral hemorrhage and brain microhemorrhages” (St. Michaels Hospital, priority 2016, dated 2019).
Like-named read-outs stand apart in the source and are kept apart here.

How the values were obtained:
[1] = tested on: brain hemorrhage induced by 1 μM atorvastatin in zebrafish; test: Atorvastatin-induced brain hemorrhage (ICH) model in zebrafish, rescue by drugs; settings: for Efficacy on atorvastatin Hemorrhage: ATV model induced by 1 μmol/L atorvastatin, inhibition of hemorrhage; for EC50: Danio rerio; for Result in the ATV zebrafish model: derivatives acquired from Sequoia Research Products
Procedure: Zebrafish were set up the night before the experiment day. In the morning of the experimental day, we put breeders together for mating and fertilization. 6 hours post-fertilization (hpf), statins was added into a 96-well plate holding 100 μl water with 7 to 8 fish eggs in each well, which was optimized through a serial pilot experiments. Statins were dissolved in DMSO and diluted with 0.5% of DMSO water into a working solution. 100 μl water containing 0.5% of DMSO was the medium for all wells in the final assessment.
For screening NIH compound libraries, 5 μM of each of the drugs from the library was added at 24 hpf into wells containing fish eggs treated with 1 μM ATV since 6 hpf. Hemorrhage positive control wells were treated with ATV but not treated with any drugs. Negative controls were not treated with any chemicals (fish with 0.5% of DMSO water). Geranylgeranyl pyrophosphate (GGPP, 4 mg/L) was used as positive rescue control.
Brain hemorrhage was assessed 72 hpf (66 hours after addition of statins) using stereomicroscopy by two observers. Percentage of brain hemorrhage was used as final readout. Compounds showing more than 70% of rescue of the brain hemorrhages in the initial test were re-tested to generate a final list of hits from the library.
All subsequent EC50 assays of positive compounds were performed with protocols established and optimized during the screening.

[2] = tested on: β-Pix MO-induced hemorrhage in zebrafish; test: βPix morpholino-induced hemorrhage in zebrafish, rescue by drugs; assay type: in vivo, zebrafish (Danio rerio); settings: inhibition of β-Pix MO-induced hemorrhage
Procedure: (§1) Morpholino oligonucleotides (MOs) were custom-synthesized by Gene Tools (Carvalis, Oreg.); their sequences are shown in Table 1.
(§2) Danieau buffer (58 mM NaCl, 0.7 mM KCl, 0.4 mM MgSO4, 0.6 mM Ca(NO3)2, 5.0 mM HEPES, pH 7.6) was used to dilute the MO solutions to 0.2 mM final concentration. Individual wells were placed on a 1.0% agarose plate, in which the embryos were positioned. Afterwards, the MO solution was injected through the cell yolk into embryos of 1 to 4 cell-stage. The injected quantities varied from 0.5 to 15 ng.
(§3) bbhm292 zebrafish mutant has a hypomorphic mutation in βPix, resulting in ICH/BMH and hydrocephalus. The MO is βPixexon6-MO which blocks splicing of exon 6 and results in premature protein termination. […] Higher doses of βPixexon6-MO (up to 8 ng) result in a lack of blood circulation, and therefore no ICH/BMH was detected. Injection of 8 ng results in complete missplicing of βPix and therefore a null phenotype, whereas lower doses retain some normally spliced βPix. The βPixexon6-MO sequence is 5′-[…]-3′ [SEQ ID NO: 1]. 3Pixexon6-MO was injected into the embryos at the 1-2 cell stage, and compounds were added 12 hpf.
The first three morpholino pairs were good for the efficacy study. Efficacy assays were performed using Artemether (ARM, Sigma) and artemesunate (ART, GMP). […] Treating these morphants with the drugs rescued the ICH phenotype.

zebrafish larvae [3] = test: Toxicity assay in zebrafish larvae (heart beat, blood flow, cardiac edema); assay type: in vivo, zebrafish (Danio rerio)
Procedure: The embryos were collected and distributed into a 96-well plate in 0.5% DMSO, similar to efficacy assays. […] Heart beat and blood flow were ranked from 3 (normal heart beat or blood flow) to 0 (no heart beat or blood flow). Cardiac edema was ranked from 0 (normal heart without edema) to −3 (severe cardiac edema). […] The ratio of TC50/EC50 was calculated in each case.
Heart beat and blood flow were ranked from 3 (normal heart beat or blood flow) to 0 (no heart beat or blood flow). Cardiac edema was ranked from 0 (normal heart without edema) to −3 (severe cardiac edema). […] Data is expressed as mean±SEM from 3 experiments.

[4] = tested on: bbh mutant zebrafish (mutation in βPix), spontaneous ICH; test: bbh (bubblehead) mutant genetic model of brain hemorrhage; assay type: in vivo, zebrafish (Danio rerio); settings: Danio rerio, read-out: EC50 to rescue brain hemorrhage, bbh Mutant Model
Source text: A specific zebrafish line with a gene mutation called bubblehead (bbh) was used. This line has spontaneous ICH. Bubblehead phenotype is caused by a mutation in βPix. Adult homozygous zebrafish were viable and fertile. […] More than 85% of zebrafish larvae display an ICH phenotype.

zebrafish larvae [5] = test: Morpholino injection to induce hemorrhage in zebrafish larvae; assay type: in vivo; settings: at optimum injected amount; 3 dpf larvae; n = 150-250 per condition
Procedure: as §1, §2, §3
Another MO was designed to block the splice-donor sites after exon 8 in pak2a. Pak2a is the gene mutated in the rhdmi149 zebrafish mutant that develops ICH/BMH. The pak2a-MO sequence is 5′-[…]-3′ (SEQ ID NO: 2). Eight pg of pak2a-MO was injected per embryo, resulting in […] of embryos with ICH/BMH with low mortality (FIGS. 12 and 14).
Next, optimum amount of each morpholino was determined. The goal was to induce an acceptable percentage of hemorrhage (ideally between 40-80%), without having toxicity from morpholino injection.

[6] = drug from Sequoia Research (UK)
[7] = drug from Sigma, 3 dpf larvae, drug added 24 hpf
[8] = read-out: EC50 (in nmol/L) on atorfvastatin model (μmol/L)
[9] = read-out: EC50 to rescue brain hemorrhage, Statin Model

Molecule: CCOC(=O)C1=C(C)NC(C)=C(C(=O)OCC)C1c1ccccc1/C=C/C(=O)OC(C)(C)C [Lacidipine]
- Efficacy on atorvastatin Hemorrhage [1]: ++++ (One + sign represents 20% inhibition on 1 μmol/L ATV or β-Pix MO-induced hemorrhage.)

Molecule: Benidipine
- Efficacy on β-Pix MO Hemorrhage [2]: ++++ (One + sign represents 20% inhibition on 1 μmol/L ATV or β-Pix MO-induced hemorrhage.)
- Efficacy on atorvastatin Hemorrhage [1]: ++++ (One + sign represents 20% inhibition on 1 μmol/L ATV or β-Pix MO-induced hemorrhage.)

Molecule: C[C@H]1[C@@H](O)O[C@@H]2O[C@]3(C)CC[C@H]4[C@H](C)CC[C@@H]1[C@@]24OO3 [Dihydroartemisinin]
- TC50 (Blood flow) (zebrafish larvae [3]; [6]): 979.5 nM
- TC50 (Edema) (zebrafish larvae [3]; [6]): 1021 nM
- TC50 (Blood flow) (zebrafish larvae [3]; [7]): 890 nM
- TC50 (Edema) (zebrafish larvae [3]; [7]): 748.5 nM
- Efficacy on β-Pix MO Hemorrhage [2]: +++++ (One + sign represents 20% inhibition on 1 μmol/L ATV or β-Pix MO-induced hemorrhage.)
- EC50 [4]: 107 nM
- Efficacy on atorvastatin Hemorrhage [1]: +++++ (One + sign represents 20% inhibition on 1 μmol/L ATV or β-Pix MO-induced hemorrhage.)
- EC50 [1, 8]: 67 nmol/L
- EC50 [1, 9]: 80.8 nmol/L
- Result in the ATV zebrafish model [1]: tested positive

Molecule: C[C@@H]1CC[C@H]2[C@@H](C)C(=O)O[C@@H]3O[C@]4(C)CC[C@@H]1[C@]32OO4 [Artemisinin]
- TC50 (Blood flow) (zebrafish larvae [3]; [6]): 5340 nM
- TC50 (Edema) (zebrafish larvae [3]; [6]): 6347 nM
- TC50/EC50 ratio (Blood flow) (zebrafish larvae [3]; [6]): (20.4)
- TC50/EC50 ratio (Edema) (zebrafish larvae [3]; [6]): 24.2)
- TC50/EC50 ratio (Heart beat) (zebrafish larvae [3]; [6]): 4.6e+007)
- TC50/EC50 ratio (Blood flow) (zebrafish larvae [3]; drug from Sigma): (13)
- TC50/EC50 ratio (Edema) (zebrafish larvae [3]; drug from Sigma): (419)
- TC50/EC50 ratio (Heart beat) (zebrafish larvae [3]; drug from Sigma): (104.5)
- TC50 (Blood flow) (zebrafish larvae [3]; [7]): 1058 nM
- TC50 (Edema) (zebrafish larvae [3]; [7]): 34134 nM
- TC50 (Heart beat) (zebrafish larvae [3]; [7]): 8501 nM
- Efficacy on β-Pix MO Hemorrhage [2]: +++++ (One + sign represents 20% inhibition on 1 μmol/L ATV or β-Pix MO-induced hemorrhage.)
- EC50 [4]: 177 nM
- Efficacy on atorvastatin Hemorrhage [1]: +++++ (One + sign represents 20% inhibition on 1 μmol/L ATV or β-Pix MO-induced hemorrhage.)
- EC50 [1, 8]: 95 nmol/L
- EC50 [1, 9]: 81.3 nmol/L
- Result in the ATV zebrafish model [1]: tested positive

Molecule: Rap1b - exon3: morpholino 5′-AAATGATGCAGAACTTGCCTTTCTG-3′ (all phosphorodiamidate morpholino (PMO))
- Hemorrhage (zebrafish larvae [5]): 30.8% (Faint)

Molecule: C#C[C@]1(O)CC[C@H]2[C@@H]3CCc4cc(O)ccc4[C@H]3CC[C@@]21C [Ethynylestradiol]
- Efficacy on atorvastatin Hemorrhage [1]: +++ (One + sign represents 20% inhibition on 1 μmol/L ATV or β-Pix MO-induced hemorrhage.)
